The values below are quoted from earlier work in patent publication US9928346B1, “Test panel to measure blood neurotoxin levels in prematernal women and for the general public in relation to mental disorders of the aging” (priority 2016, dated 2018).

SMILES strings stand for the structures. Read-outs that look alike come from different tables or passages of the source.

For data set [1] the following is noted: for an average man.
The conditions of data set [2]: for Minimum Risk Level: blood levels.
The conditions of data set [3]: orally consumed, toxicology assessment.

As for `[Mn+2]` [Manganese, manganese], the tentative dietary suggestions entry in data set [1] is recorded as “about 10 mg/day”. Also, the “Minimum Risk Level” value in data set [2] is recorded as less than 18 microgram per liter.

On to `[Pb]` [Lead, lead], for which, in data set [2], the “Minimum Risk Level” value is reported as less than 50 microgram per liter.

On to `[Al]` [Aluminum, aluminum], for which the Minimum Risk Level in data set [3] is reported as 1.0 mg Al/kg body weight/day; in data set [2], less than 6 microgram per liter. In addition, the “MRL for blood content” value in data set [2] (recommended by Mayo Clinic and Micro Trace Minerals diagnostic centers) is on record as less than 6 microgram/liter. The “absorption by the intestines” value (digested aluminum) was 1%. In addition, the “absorbed in the blood” value (intravenous injection from a vaccine) was 100%.

Turning to `[AsH3]` [Arsenic, arsenic], the “Minimum Risk Level” value in data set [2] is less than 10 microgram per liter.
